Values joined by “and” are separate entries in the source; they are usually repeats but may differ in a detail not shown here. Equal entries are not always repeated.
Tests used:
[1] = serum NEFA, insulin and corticosterone in rats on a moderate fat diet given potassium hydroxycitrate for 60 days; type: in vivo; conditions: student's T test
Excerpt: Therefore, animal tests were scrutinized to determine if variations in serum levels of non-esterified fatty acids (NEFA), insulin and corticosterone could explain the novel findings. Ten-week old male rats were placed on a moderate fat diet (30% of calories, which is a high-fat diet for rats) for 60 days. These rats were fed water or potassium hydroxycitrate (0.33 mmols/kg) twice daily by gastric intubation, but were otherwise provided with food and water ad libitum. Five animals were used as controls and two different formulas of potassium hydroxycitrate were provided to five animals each. The differences between control (5 data points) and active (10 data points) were then analyzed according to the student's T test. […] Both of these factors could play a role in the clinical findings of lowered blood pressure in hypertensive individuals. Elevated insulin levels are known to be associated with hypertension. Glucocorticoids, similarly, are associated with hypertension through a variety of mechanisms, including sodium retention.

[2] = treated rats, diets mostly of glucose (e.g. 70% glucose); Sullivan and Triscari 1976; cited from earlier work
[3] = pilot open clinical weight loss trial with a pouch delivery form of potassium (−)-hydroxycitrate in extremely obese patients (blood pressure, weight, tolerability); type: in vivo, human; design: Starting Blood Pressure: unit not given here
Excerpt: Blood pressure data was acquired from a multi-week pilot open clinical weight loss trial with extremely obese patients which was undertaken to gauge the effects of a pouch delivery form of a potassium salt of (−)-hydroxycitrate under the normal circumstances faced in clinical practice with this patient population. Sixteen patients were enrolled, three of whom were diabetics on medications or insulin. Several others were suspected of suffering from insulin resistance. The patients ingested 3–4 grams of HCA per day in two divided doses. Aside from being informed that they must eat a carbohydrate-containing meal within one hour of taking the HCA and that they should avoid eating late in the day, they were not instructed to follow any special diet or exercise plan outside their normal habits and no caloric restriction was imposed. This particular form of potassium (−)-hydroxycitrate delivery typically was mixed into water or juice and consumed at mid-morning and mid-afternoon. The delivery was a water-soluble immediate release form. […] A number of patients continued on the program for 6 weeks. […] Several other patients experienced good appetite suppression, yet also complained of episodic tiredness at the beginning of the program, a sign of low blood sugar. Two patients subsequently were placed on phentermine. […] The average weight loss over the 3 week period for these 14 patients was approximately 3.1 pounds per person per week. The clinical decision was made that potassium (−)-hydroxycitrate in an immediate release format can exercise a strong hypoglycemic effect in diabetics and that it appears to influence blood sugar levels in protodiabetics, as well. At therapeutically effective dosages, HCA probably should be used with diabetic populations only under a physician's care.
Along with the hypoglycemic effect of the potassium hydroxycitrate, a quite surprising finding was that blood pressure levels in eight patients began to normalize rapidly with this treatment. Elevated blood pressure is common with obese and insulin-resistant patients, and therefore it was unremarkable that in this patient population (ages ranging roughly 30 to 60) that almost one half suffered from hypertension. Following are the readings for the eight hypertensive patients. Many of these patients had been advised to lower salt intake and to increase potassium and magnesium intake. […]

| Compound | corticosterone levels, HCA groups versus control ([1]; pooled active (10) vs control (5), one-tailed P 0.0013, two-tailed P 0.0026) | insulin levels, HCA groups versus control ([1]; pooled active (10) vs control (5), one-tailed P 0.0306, two-tailed P 0.0612) | NEFA, HCA groups versus control ([1]; pooled active (10 data points) vs control (5)) | plasma levels of glucose, insulin, or free fatty acids relative to controls [2] | hypotensive effect ([3]; as little as 3 grams of HCA per day in divided doses (5 grams of the salt), manifests over one to several weeks) | Starting Blood Pressure ([3]; baseline reading of each of the eight hypertensive, extremely obese patients before treatment) | weight loss of one patient ([3]; one patient who followed the program for 10 weeks, 3–4 grams of HCA per day) | average weight loss ([3]; over the 3 week period, 14 patients, 3–4 grams of HCA per day, no caloric restriction) | tolerability ([3]; pre-commercial pouch preparation, patients complained of inconvenience and poor taste) | hypoglycemic reactions ([3]; two of the diagnosed diabetics on medications or insulin, 3–4 grams of HCA per day, immediate release) |
| --- | --- | --- | --- | --- | --- | --- | --- | --- | --- | --- |
| O=C(O)CC(O)(C(=O)O)C(O)C(=O)O (single isomer, unassigned; (-)) [HCA, (−)-Hydroxycitric acid] | very significantly lower | significantly lower | no significant difference | no significant differences | – | – | – | – | – | – |
| O=C([O-])CC(O)(C(=O)[O-])C(O)C(=O)[O-].[K+].[K+].[K+] (stereo not drawn) [potassium hydroxycitrate, potassium (−)-hydroxycitrate] | – | – | – | – | significant hypotensive effect | 150/88 and 178/100 and 130/98 and 150/98 and 140/78 and 180/88 and 120/80 and 170/100 | 32 pounds | approximately 3.1 pounds per person per week | no other issues of tolerability | severe hypoglycemic reactions |

From patent US7015250B2, “Methods and pharmaceutical preparations for normalizing blood pressure with (-)-hydroxycitric acid” (Glykon Technologies Group, LLC, priority 2000, dated 2006)
